Measurements as given in article PMC3470935 (Journal of medicinal chemistry, 2012).
Changes are numbered by the printed parent chain.

What was measured:
AKR1C3 = target: T1, AKR1C3 (Homo sapiens, UniProt P42330); assay: Spectrophotometric inhibition assay, 1-acenaphthenol oxidation with NAD+; format: biochemical; conditions: pH 9.0, screening at 400 μM
T1 sequence (P42330 1-323): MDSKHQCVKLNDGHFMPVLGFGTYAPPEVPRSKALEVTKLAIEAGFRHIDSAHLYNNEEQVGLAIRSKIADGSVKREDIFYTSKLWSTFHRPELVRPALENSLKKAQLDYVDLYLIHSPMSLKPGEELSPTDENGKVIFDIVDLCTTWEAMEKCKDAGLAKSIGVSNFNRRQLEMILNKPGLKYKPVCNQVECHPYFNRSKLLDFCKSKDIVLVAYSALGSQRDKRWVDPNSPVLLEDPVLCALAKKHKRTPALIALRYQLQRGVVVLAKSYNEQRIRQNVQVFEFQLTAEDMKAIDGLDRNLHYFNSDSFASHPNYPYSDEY

AKR1C1-3 = assay: Isoform profile across the AKR1C enzymes; format: biochemical, human; conditions: 1-acenaphthenol oxidation, NAD+, pH 9.0
AKR1C1 = target: T2, AKR1C1 (Homo sapiens, UniProt Q04828); assay: Spectrophotometric inhibition assay, 1-acenaphthenol oxidation with NAD+; format: biochemical; conditions: pH 9.0, screening at 400 μM
T2 sequence (Q04828 1-323): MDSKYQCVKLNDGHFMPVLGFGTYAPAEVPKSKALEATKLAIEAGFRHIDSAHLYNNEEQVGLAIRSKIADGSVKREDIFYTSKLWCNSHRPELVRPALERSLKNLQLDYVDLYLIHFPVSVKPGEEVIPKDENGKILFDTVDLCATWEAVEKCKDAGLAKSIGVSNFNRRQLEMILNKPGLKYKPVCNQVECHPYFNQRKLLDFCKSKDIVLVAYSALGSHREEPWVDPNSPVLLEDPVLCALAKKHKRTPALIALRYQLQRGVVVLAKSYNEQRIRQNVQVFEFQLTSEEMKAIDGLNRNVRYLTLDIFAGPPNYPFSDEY

AKR1C2 = target: T3, AKR1C2 (Homo sapiens, UniProt P52895); assay: as above; format: biochemical; conditions: pH 9.0, screening at 400 μM
T3 sequence (P52895 1-323): T2 sequence (Q04828 1-323) with T38V, R47H, L54V, C87S, V151M, R170H, Q172L

inhibition of AKR1C3 (in words) (AKR1C3)	inhibition profile / isoform selectivity on AKR1C enzymes (in words) (AKR1C1-3)	inhibition of AKR1C1 (in words) (AKR1C1)	inhibition of AKR1C2 (in words) (AKR1C2)	Compound
–	low inhibitory effect	–	–	NC(=O)c1ccccc1NC(=O)c1ccncc1 [Compound 7]
–	low inhibitory effect	–	–	Cc1cccc(C(=O)Nc2ccccc2C(N)=O)c1 [Compound 8]
weak inhibitor	–	weak inhibitor	–	Cc1ccc(NC(=O)c2cccnc2)c(C(=O)O)c1 [Compound 10]
moderate	–	–	–	O=C(O)c1ccc(CNCc2ccccn2)cc1 [Compound 18]
–	–	–	moderate inhibitor	CC(=O)Nc1ccc(C(C#N)c2ccccc2)cc1 (stereo not shown) [Compound 24, N-(4-(cyano(phenyl)methyl)phenyl)acetamide]
–	selective AKR1C3 inhibitors	–	–	O=C(NCc1cc(=O)[nH]cn1)c1cc2ccccn2n1 [Compound 27, N-((6-oxo-1,6-dihydropyrimidin-4-yl)methyl)pyrazolo[1,5-a]pyridine-2-carboxamide]

The next lines start with the compound.

Compound	inhibition of AKR1C3 (in words) (AKR1C3)	inhibition profile / isoform selectivity on AKR1C enzymes (in words) (AKR1C1-3)	inhibition of AKR1C1 (in words) (AKR1C1)	inhibition of AKR1C2 (in words) (AKR1C2)
O=C(O)c1cc(NC(=O)c2ccccc2F)ccc1O [Compound 1, 5-(2-fluorobenzamido)salicylic acid]	moderate	–	–	–
Cc1cc(C(=O)Nc2ccc(O)c(C(=O)O)c2)oc1C [Compound 3, 5-(4,5-dimethylfuran-2-carboxamido)-salicylic acid]	–	selective AKR1C3 inhibitor	no observable inhibition	very low inhibition
Cc1oc(C(N)=O)cc1COc1ccccc1C(N)=O [Compound 4, 4-((2-carbamoylphenoxy)methyl)-5-methylfuran-2-carboxamide]	moderate inhibitor	partially selective towards AKR1C1	–	moderate inhibitor
NC(=O)c1ccccc1/N=C/c1cccc(O)c1 [Compound 5, 2-(3-hydroxybenzylideneamino)benzamide]	–	selective AKR1C3 inhibitor	–	–
O=C(CSc1ncnc2[nH]cnc12)Nc1ccccn1 [Compound 25, 2-((9H-purin-6-yl)thio)-N-(pyridin-2-yl)acetamide]	–	selective AKR1C1 inhibitor	–	–
